Values of other authors, collected in patent US20220184234A1, “METABOLIC TARGETING OF LOW GRADE TUMORS” (SonalaSense, Inc., priority 2020, published 2022).

Test system: tumor
[1] = all experimental groups (5-ALA and FUS)

NCC(=O)CCC(=O)O [5-ALA, 5-aminolevulinic acid]
normalized tumor volume (5-ALA only group (no FUS), untreated controls 32±10 mm^3): 24±6 mm^3
subjects surviving past 60 days (5-ALA, group sonicated at multiple points within the tumor (MP group)): 50%
survival compared to control animals [1]: improved survival
tumor growth compared to control animals [1]: inhibited tumor growth
tissue damage (rats, 20 mg/kg 5-ALA, sonication at 55.2 W/cm^2 for 20 minutes): suffered tissue damage
